Measurements reported in patent US10406151B2, “Method of inducing autophagy” (Mitsubishi Gas Chemical Company, Inc., priority 2016, dated 2019).

Columns and labels:
HeLa cells [1] = assay: Evaluation of autophagy by fluorescence microscopy with Cyto-ID autophagy detection kit; assay type: cell-based; settings: culture for 1 day, fluorescence intensity same as rapamycin of the kit as reference
Description: (§1) The cells were cultured at 37° C. under 5% CO2. The culture medium used was D-MEM (Invitrogen-Gibco) to which 10% fetal bovine serum was added.
(§2) After culture for 1 day, the range in which autophagy occurred was measured by fluorescence microscopic observation using a Cyto-ID (registered trademark) autophagy detection kit (Cosmo Bio Co., Ltd.). […] Similarly, the 50% cell mortality concentration was also determined from the slope using a Cell Counting Kit-8 (Dojindo Laboratories Co., Ltd.), which is kit for measuring cell counts.

HeLa cells [2] = settings: for 50% cell mortality concentration: culture for 1 day, determined from the slope, Cell Counting Kit-8
Description: as §1, §2

| Compound | concentration inducing autophagy equal to rapamycin reference (HeLa cells [1]) | 50% cell mortality concentration (HeLa cells [2]) | toxicity among the pyrroloquinoline quinone species (in words) (HeLa cells [2]; conclusion from Table 1) |
| --- | --- | --- | --- |
| O=C(O)c1cc(C(=O)O)c2c(n1)C(=O)C(=O)c1cc(C(=O)O)[nH]c1-2 [Example 1, Disodium 4,5-Dioxo-4,5-dihydro-1H-pyrrolo[2,3-f]quinoline-2,7,9-tricarboxylic Acid] | 0.8 mg/L | 123 mg/L |  |
| COC(=O)c1cc(C(=O)OC)c2c(n1)C(=O)C(=O)c1cc(C(=O)OC)[nH]c1-2 [Example 2, Trimethyl 4,5-Dioxo-4,5-dihydro-1H-pyrrolo[2,3-f]quinoline-2,7,9-tricarboxylate] | 0.8 mg/L | 16 mg/L |  |
| O=C(O)c1cc(C(=O)O)c2c(n1)c(O)c(O)c1cc(C(=O)O)[nH]c12 [Example 3, 4,5-Dihydroxy-1H-pyrrolo[2,3-f]quinoline-2,7,9-tricarboxylic Acid] | 12.5 mg/L | 48 mg/L |  |
| COC(=O)c1cc(C(=O)OC)c2c(n1)C(=O)C(OC)(OC)c1cc(C(=O)OC)[nH]c1-2 [Example 5, Trimethyl 4,4-Dimethoxy-5-oxo-4,5-dihydro-1H-pyrrolo[2,3-f]quinoline-2,7,9-tricarboxylate] | 0.8 mg/L | at least 1000 mg/L | lowest toxicity |
| C[S+](C)[O-] [comparative example 1, dimethyl sulfoxide, reference compound] | at least 1000 mg/L | 674 mg/L |  |
